Values quoted from earlier work in PubChem BioAssay AID1259409 (Chemical Carcinogenesis Research Information System (CCRIS), 2018).

Tested on: rodent chemically induced tumor inhibition, incidence and multiplicity
Assay: CCRIS tumor inhibitor studies
Details: for tumour outcome (control, treated, inhibition, significance): Promoter: NONE USED; for outcome: Carcinogen: 4-NITROQUINOLINE 1-OXIDE [56-57-5], Route [Inhibitor]: ORAL (DIET), Dose [Carcinogen]: 20 PPM FOR 8 WKS STARTING AT 7 WKS OF AGE (STUDY DURATION: 32 WKS)

In the case of `S=C=Nc1ccccc1`, the “tumour outcome (control, treated, inhibition, significance)” value (Carcinogen: 4-(METHYLNITROSAMINO)-1-(3-PYRIDYL)-1-BUTANONE, 64091-91-4, Dose [Inhibitor]: 0, 5 UMOL 1/D FOR 4 D ADMINISTERED PRIOR TO CARCINOGEN DOSE (STUDY DURATION: 116 D), Route [Inhibitor]: GAVAGE, Species: MOUSE, Strain/Sex: STRAIN-A, Target Tissue: Type of Lesion: LUNG: ADENOMA, Dose [Carcinogen]: 10 UMOL IN SALINE ADMINISTERED 2 HR POST LAST AGENT DOSE) is given as 100%, 100%, 0%, the “tumour outcome (control, treated, inhibition, significance)” value (Carcinogen: 4-(METHYLNITROSAMINO)-1-(3-PYRIDYL)-1-BUTANONE, 64091-91-4, Dose [Inhibitor]: 0, 5 UMOL 1/D FOR 4 D ADMINISTERED PRIOR TO CARCINOGEN TREATMENT (STUDY DURATION: 116 D), Route [Inhibitor]: GAVAGE, Species: MOUSE, Strain/Sex: STRAIN A, Target Tissue: Type of Lesion: LUNG: ADENOMA, Dose [Carcinogen]: 10 UMOL ONCE, 2 HR AFTER FINAL DOSE OF INHIBITOR) is given as 100%, 100%, 0%, not significant and the “tumour outcome (control, treated, inhibition, significance)” value (Carcinogen: 4-(METHYLNITROSAMINO)-1-(3-PYRIDYL)-1-BUTANONE, 64091-91-4, Dose [Inhibitor]: 0, 5 UMOL/D FOR 4 CONSECUTIVE DAYS (STUDY DURATION: 17 WK), Route [Inhibitor]: GAVAGE, Species: MOUSE, Strain/Sex: STRAIN-A/FEMALE, Target Tissue: Type of Lesion: LUNG: ADENOMA, Dose [Carcinogen]: 10 UMOL ONCE 2 HR POST LAST AGENT DOSE) is given as 100%, 100%, 0%, not significant. The “tumour outcome (control, treated, inhibition, significance)” value (Carcinogen: 4-(METHYLNITROSAMINO)-1-(3-PYRIDYL)-1-BUTANONE, 64091-91-4, Dose [Inhibitor]: 5 UMOL/D FOR 4 CONSECUTIVE DAYS (STUDY DURATION: 16 WK), Route [Inhibitor]: GAVAGE, Species: MOUSE, Strain/Sex: STRAIN-A/FEMALE, Target Tissue: Type of Lesion: LUNG: ADENOMA, Dose [Carcinogen]: 10 UMOL ONCE 2 HR POST LAST AGENT DOSE) was 30/30 (100%), 30/30 (100%), 0%, the “tumour outcome (control, treated, inhibition, significance)” value (Carcinogen: 4-(N-NITROSOMETHYLAMINO)-1-(3-PYRIDYL)-1-BUTANONE, 64091-91-4, Dose [Inhibitor]: 0, 5 UMOL/D FOR 4 CONSECUTIVE DAYS (STUDY DURATION: 16.5 WK), Route [Inhibitor]: GAVAGE, Species: MOUSE, Strain/Sex: STRAIN-A/FEMALE, Target Tissue: Type of Lesion: LUNG: ADENOMA, Dose [Carcinogen]: 10 UMOL ONCE 2 HR POST LAST AGENT DOSE) was 100%, 100%, 0%, not significant and the “tumour outcome (control, treated, inhibition, significance)” value (Carcinogen: 7,12-DIMETHYLBENZ[A]ANTHRACENE, 57-97-6, Dose [Inhibitor]: 23 MG ONCE 4 HR PRIOR TO CARCINOGEN DOSE (STUDY DURATION: 18 WK), Route [Inhibitor]: INTRAGASTRIC, Species: RAT, Strain/Sex: SPRAGUE-DAWLEY/FEMALE, Target Tissue: Type of Lesion: MAMMARY GLAND: TUMOR, Dose [Carcinogen]: 12 MG IN 1 ML OLIVE OIL AT AGE 7 WK) was 86%, 46%, 46%, p<0.05.

In the case of `C=C(C)[C@@H](CC=C(C)C)CC12C[C@@H](CC=C(C)C)C(C)(C)C(CC=C(C)C)(C(=O)/C(=C(\O)c3ccc(O)c(O)c3)C1=O)C2=O` (stereo partly specified), the outcome (Dose [Inhibitor]: 0, 100, 500 PPM FOR 8 WKS STARTING AT 6 WKS OF AGE TO 1 WK AFTER CARCINOGEN EXPOSURE (STUDY DURATION: 32 WKS), Dose [Inhibitor]: 0, 100, 500 PPM FOR 8 WKS STARTING AT 6 WKS OF AGE TO 1 WK AFTER CARCINOGEN EXPOSURE (STUDY DURATION: 32 WKS), Species: RAT, Strain/Sex: F344/MALE (?,26)/(?,16), Target Tissue: Type of Lesion: TONGUE: SQUAMOUS CELL CARCINOMA) is given as “(13/26) 50%; (2/16) 12.5%, 75%, p<0.02; (1/16) 6.3%, 87%, p<0.005”, the outcome (Dose [Inhibitor]: 0, 100, 500 PPM FOR 8 WKS STARTING AT 6 WKS OF AGE TO 1 WK AFTER CARCINOGEN EXPOSURE (STUDY DURATION: 32 WKS), Dose [Inhibitor]: 0, 100, 500 PPM FOR 8 WKS STARTING AT 6 WKS OF AGE TO 1 WK AFTER CARCINOGEN EXPOSURE (STUDY DURATION: 32 WKS), Species: RAT, Strain/Sex: F344/MALE (?/26)/(?,16), Target Tissue: Type of Lesion: TONGUE: PAPILLOMA) is given as “(4/26) 15.4%; (1/16) 6.3%, 59.1%; (1/16) 6.3%, 59.1%” and the outcome (Dose [Inhibitor]: 100, 500 PPM STARTING 1 WK AFTER CARCINOGEN FOR 22 WKS (STUDY DURATION: 32 WKS), Species: RAT, Strain/Sex: F344/MALE (?,26)/(?,15), Target Tissue: Type of Lesion: TONGUE: PAPILLOMA) is given as “(4/26) 15%; (3/15) 20%, -30%; (2/15) 13%, 14%”. The outcome (Dose [Inhibitor]: 100, 500 PPM STARTING 1 WK AFTER CARCINOGEN FOR 22 WKS (STUDY DURATION: 32 WKS), Species: RAT, Strain/Sex: F344/MALE (?,26)/(?,15), Target Tissue: Type of Lesion: TONGUE: SQUAMOUS CELL CARCINOMA) was “(13/26) 50%; (1/15) 6.7%, 87%, p<0.05; (0/15) 0%, 100%, p<0.001”.

In the case of `C=C1C[C@H]2[C@@H]3CC[C@H](OC(C)=O)[C@@]3(C)CC[C@@H]2[C@@]2(C)CCC(=O)C=C12`, the “tumour outcome (control, treated, inhibition, significance)” value (Carcinogen: NONE USED, Dose [Inhibitor]: 0, 1 SILASTIC CAPSULE (1.5, 2.0, AND 15 MM IN INNER AND OUTER DIAMETERS AND LENGTH, RESPECTIVELY) REPLACED AFTER 2 MO IN, Route [Inhibitor]: SUBCUTANEOUS IMPLANT, Species: MOUSE, Strain/Sex: SHN/FEMALE, Target Tissue: Type of Lesion: MAMMARY GLAND: TUMOR) is listed as 100%, 75%, 25%, p<0.01.
